In PubChem BioAssay (NCI):
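The compound was tested at five concentrations on cells cultured in 96-well plates, with a 48-hour exposure period. GI50 = concentration required for 50% inhibition of growth. Definition used: TGI = concentration required for complete inhibition of growth.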

What was measured:
Assay in all cases: NCI tumour cell line growth inhibition, 48 h
[1] = test system: KM20L2 colon
[2] = test system: HOP-18 NSCLC
[3] = test system: SNB-78 CNS
[4] = test system: DMS 114 small cell lung
[5] = test system: SN12K1 renal
[6] = test system: P388 leukemia
[7] = test system: XF 498 CNS
[8] = test system: P388/ADR leukemia
[9] = test system: LXFL 529 NSCLC
[10] = test system: RXF-631 renal

`O=C([CH-]C(=O)c1ccccc1)c1ccccc1.O=C([CH-]C(=O)c1ccccc1)c1ccccc1.[O]=[U+2]=[O]` was tested, and the GI50 [1] was 2.65 µM, the TGI [1] was 12.4 µM and the GI50 [2] was 5.3 µM. It also gave a TGI [2] of 24.9 µM.

In the case of `NC(=O)c1ncn2c1NC(=O)CC2`, the TGI [3] was > 86.8 µM, the TGI [4] was > 100 µM and the TGI [5] was > 100 µM. The TGI [1] was > 100 µM, the TGI [6] was > 31.6 µM and the TGI [2] was > 100 µM. The TGI [7] was > 100 µM and the TGI [8] was > 100 µM.

With `O=C1c2cccc(NCCNCCO)c2C(=O)c2cccc(NCCNCCO)c21` the TGI [3] was 6.91 µM, the TGI [4] was 1.41 µM and the TGI [9] was 2.95 µM. The TGI [10] was 16.4 µM, the TGI [1] was 5.3 µM and the TGI [2] was 7.79 µM. It also gave a TGI [7] of 1.88 µM.

For `CCCCC#CS(=O)(=O)C(F)(F)F`, the TGI [3] was > 100 µM, the TGI [4] was > 100 µM and the TGI [5] was > 100 µM. The TGI [1] was > 100 µM, the TGI [6] was 63.2 µM and the TGI [2] was > 100 µM. The TGI [7] was > 94.7 µM and the TGI [8] was > 100 µM.

`COc1c(O)c(O)cc2c1-c1ccc(OC)c(=O)cc1C(NC(C)=O)CC2` (centres undefined) was tested, and the TGI [3] was > 100 µM, the TGI [4] was 6.43 µM and the TGI [9] was 25.2 µM. The TGI [10] was 68.4 µM, the TGI [1] was 17.5 µM and the TGI [2] was > 100 µM. It also gave a TGI [7] of 54.2 µM.

For `O=C(OCc1ccccc1)C(Cc1ccccc1)N(Cc1ccccc1)Cc1ccccc1` (centres undefined), the TGI [3] was > 100 µM, the TGI [4] was > 100 µM and the TGI [9] was > 100 µM. For the same compound, the TGI [1] was > 100 µM and the TGI [7] was > 100 µM.

`COc1cc2c(c(O)c1O)-c1ccc(OC)c(=O)cc1C(NC(C)=O)CC2` (centres undefined) was tested, and the TGI [3] was > 100 µM, the TGI [9] was 44.3 µM and the TGI [10] was > 92.9 µM. The TGI [1] was 11 µM, the TGI [2] was > 100 µM and the TGI [7] was 38.5 µM.

With `Cc1c2ccncc2c(C)c2c1[nH]c1ccccc12` the TGI [3] was 7.88 µM, the TGI [4] was 3.09 µM and the TGI [5] was 3.37 µM. For the same compound, the TGI [1] was 5.89 µM, the TGI [6] was 2.89 µM and the TGI [2] was 6.38 µM. It also gave a TGI [7] of 3.29 µM and a TGI [8] of 4.32 µM.

`CC1(C)OC2CC(=O)OCC23C1CC(=O)C1(C)C3CCC2(C)C(c3ccoc3)OC(=O)C3OC321` (centres undefined) was tested, and the TGI [3] was > 125 µM, the TGI [4] was > 125 µM and the TGI [5] was > 125 µM. For the same compound, the TGI [1] was > 125 µM, the TGI [6] was > 39.5 µM and the TGI [2] was > 125 µM. The TGI [7] was > 125 µM and the TGI [8] was > 125 µM.

`C[C@]12CC[C@H](O)C=C1CC[C@@H]1[C@@H]2CC[C@]2(C)C(c3ccc(=O)oc3)CC[C@]12O` (some centres undefined) was tested, and the TGI [3] was 0.503 µM, the TGI [4] was < 0.0125 µM and the TGI [5] was 0.0201 µM. For the same compound, the TGI [1] was 0.148 µM, the TGI [6] was 125 µM and the TGI [2] was 0.0151 µM. For the same compound, the TGI [7] was 0.0505 µM and the TGI [8] was 125 µM.

In the case of `O=[N+]([O-])c1ccc(C2=Nc3ccccc3SC(c3ccccc3)C2)cc1` (centres undefined), the TGI [3] was 70.9 µM, the TGI [4] was 32.8 µM and the TGI [9] was 34.8 µM. The TGI [1] was 32.8 µM and the TGI [7] was 31.6 µM.
